Here are results for two compounds from EP1591107A1, “Process for the selective increase of a release rate of an active material from a pharmaceutical composition” (Pfizer GmbH Arzneimittelwerk Gödecke, priority 2004, dated 2005).

The conditions of data set [1]: in water, classification taken from the European Pharmacopoeia, cited from earlier work.
Data set [2] can be described thus: Solubility in water (European Pharmacopoeia solubility classes).

≈ marks a conversion by molar mass, not a printed value. Where a name gives a salt, the structure may show the parent alone. Read-outs that look alike come from different tables or passages of the source.

Consider `COc1ccc([C@@H]2Sc3ccccc3N(CCN(C)C)C(=O)[C@@H]2OC(C)=O)cc1` [diltiazem hydrochloride], for which the “solubility class according to the European Pharmacopoeia” value in data set [1] (hydrochloride) is listed as “freely soluble”; in data set [1] (listed as Diltiazem® hydrochloride, hydrochloride), “very soluble”.
Turning to `CC(C)C[C@H](CN)CC(=O)O` [pregabalin], the “volume of water in which 1 g is soluble” value in data set [2] (1 g of active material, water) amounted to 31 mL. Also, in data set [2] (class derived from the printed solubility in water), the “solubility class according to the definition of the European Pharmacopoeia” value is listed as “sparingly soluble”. Also, the solubility (commonly the dissolved amount per volume that the medium holds) in data set [2] (water) came to 32.1 mg/mL (≈ 202 mM). Besides, the “solubility class according to the European Pharmacopoeia” value in data set [1] is on record as “sparingly soluble”.
